Data taken from ChEMBL document CHEMBL5291721, “A preclinical secondary pharmacology resource illuminates target-adverse drug reaction associations of marketed drugs” (Nat Commun, 2023).

Legend:
D(1A) dopamine receptor = D(1A) dopamine receptor (Homo sapiens, UniProt P21728); format: functional, cell-based
[1] = target: T1, Alpha-2A adrenergic receptor (Homo sapiens, UniProt P08913); format: functional, cell-based
T1 sequence (P08913 whole entry): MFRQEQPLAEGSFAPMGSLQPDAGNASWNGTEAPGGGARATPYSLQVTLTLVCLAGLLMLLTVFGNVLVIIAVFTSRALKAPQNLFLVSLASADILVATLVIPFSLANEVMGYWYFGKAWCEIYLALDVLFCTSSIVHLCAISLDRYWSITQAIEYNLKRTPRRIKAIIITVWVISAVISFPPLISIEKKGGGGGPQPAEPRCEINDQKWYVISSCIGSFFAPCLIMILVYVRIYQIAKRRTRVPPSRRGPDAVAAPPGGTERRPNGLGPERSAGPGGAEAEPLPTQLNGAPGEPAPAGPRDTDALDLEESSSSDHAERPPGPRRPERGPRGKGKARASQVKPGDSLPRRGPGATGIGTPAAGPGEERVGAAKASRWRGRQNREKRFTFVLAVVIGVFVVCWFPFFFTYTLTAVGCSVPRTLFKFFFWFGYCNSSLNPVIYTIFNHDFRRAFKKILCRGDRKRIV

[2] = target: 3',5'-cyclic-AMP phosphodiesterase 4D (Homo sapiens, UniProt Q08499); format: functional
Sequence of 3',5'-cyclic-AMP phosphodiesterase 4D (Q08499 whole entry): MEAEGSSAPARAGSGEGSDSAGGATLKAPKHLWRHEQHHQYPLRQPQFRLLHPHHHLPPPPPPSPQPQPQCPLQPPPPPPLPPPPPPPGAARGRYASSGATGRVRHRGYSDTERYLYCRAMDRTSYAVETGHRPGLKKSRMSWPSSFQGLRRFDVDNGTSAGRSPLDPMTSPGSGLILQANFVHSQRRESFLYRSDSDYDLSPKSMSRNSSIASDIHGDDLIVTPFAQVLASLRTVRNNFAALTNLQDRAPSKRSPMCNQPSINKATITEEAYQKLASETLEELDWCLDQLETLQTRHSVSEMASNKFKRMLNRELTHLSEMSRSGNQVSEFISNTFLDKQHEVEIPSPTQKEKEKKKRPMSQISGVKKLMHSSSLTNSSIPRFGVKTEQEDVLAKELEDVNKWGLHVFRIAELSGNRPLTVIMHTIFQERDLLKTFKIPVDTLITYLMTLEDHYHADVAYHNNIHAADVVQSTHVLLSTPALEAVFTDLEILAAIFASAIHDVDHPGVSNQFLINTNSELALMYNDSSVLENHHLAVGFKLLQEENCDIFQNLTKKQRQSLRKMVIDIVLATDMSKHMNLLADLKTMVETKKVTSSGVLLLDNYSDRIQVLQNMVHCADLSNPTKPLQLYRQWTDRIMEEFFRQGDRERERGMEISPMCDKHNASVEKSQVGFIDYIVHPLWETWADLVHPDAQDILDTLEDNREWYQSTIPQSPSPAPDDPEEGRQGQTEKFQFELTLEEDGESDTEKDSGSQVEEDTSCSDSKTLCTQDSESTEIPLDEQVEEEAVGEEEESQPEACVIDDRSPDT

B2 bradykinin receptor = target: T2, B2 bradykinin receptor (Homo sapiens, UniProt P30411)
T2 sequence (P30411 whole entry): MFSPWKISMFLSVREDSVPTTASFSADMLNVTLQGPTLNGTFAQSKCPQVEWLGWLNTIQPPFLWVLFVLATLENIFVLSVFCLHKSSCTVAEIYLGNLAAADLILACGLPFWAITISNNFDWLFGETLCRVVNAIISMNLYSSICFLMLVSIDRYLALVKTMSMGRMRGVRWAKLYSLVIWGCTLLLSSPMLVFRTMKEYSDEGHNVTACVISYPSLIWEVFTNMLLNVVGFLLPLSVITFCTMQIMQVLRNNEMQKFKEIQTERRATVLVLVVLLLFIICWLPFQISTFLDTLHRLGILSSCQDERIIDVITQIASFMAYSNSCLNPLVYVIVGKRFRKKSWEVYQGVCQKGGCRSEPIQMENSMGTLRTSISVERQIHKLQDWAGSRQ

[3] = target: cGMP-inhibited 3',5'-cyclic phosphodiesterase 3A (Homo sapiens, UniProt Q14432); format: functional
Sequence of cGMP-inhibited 3',5'-cyclic phosphodiesterase 3A (Q14432 whole entry): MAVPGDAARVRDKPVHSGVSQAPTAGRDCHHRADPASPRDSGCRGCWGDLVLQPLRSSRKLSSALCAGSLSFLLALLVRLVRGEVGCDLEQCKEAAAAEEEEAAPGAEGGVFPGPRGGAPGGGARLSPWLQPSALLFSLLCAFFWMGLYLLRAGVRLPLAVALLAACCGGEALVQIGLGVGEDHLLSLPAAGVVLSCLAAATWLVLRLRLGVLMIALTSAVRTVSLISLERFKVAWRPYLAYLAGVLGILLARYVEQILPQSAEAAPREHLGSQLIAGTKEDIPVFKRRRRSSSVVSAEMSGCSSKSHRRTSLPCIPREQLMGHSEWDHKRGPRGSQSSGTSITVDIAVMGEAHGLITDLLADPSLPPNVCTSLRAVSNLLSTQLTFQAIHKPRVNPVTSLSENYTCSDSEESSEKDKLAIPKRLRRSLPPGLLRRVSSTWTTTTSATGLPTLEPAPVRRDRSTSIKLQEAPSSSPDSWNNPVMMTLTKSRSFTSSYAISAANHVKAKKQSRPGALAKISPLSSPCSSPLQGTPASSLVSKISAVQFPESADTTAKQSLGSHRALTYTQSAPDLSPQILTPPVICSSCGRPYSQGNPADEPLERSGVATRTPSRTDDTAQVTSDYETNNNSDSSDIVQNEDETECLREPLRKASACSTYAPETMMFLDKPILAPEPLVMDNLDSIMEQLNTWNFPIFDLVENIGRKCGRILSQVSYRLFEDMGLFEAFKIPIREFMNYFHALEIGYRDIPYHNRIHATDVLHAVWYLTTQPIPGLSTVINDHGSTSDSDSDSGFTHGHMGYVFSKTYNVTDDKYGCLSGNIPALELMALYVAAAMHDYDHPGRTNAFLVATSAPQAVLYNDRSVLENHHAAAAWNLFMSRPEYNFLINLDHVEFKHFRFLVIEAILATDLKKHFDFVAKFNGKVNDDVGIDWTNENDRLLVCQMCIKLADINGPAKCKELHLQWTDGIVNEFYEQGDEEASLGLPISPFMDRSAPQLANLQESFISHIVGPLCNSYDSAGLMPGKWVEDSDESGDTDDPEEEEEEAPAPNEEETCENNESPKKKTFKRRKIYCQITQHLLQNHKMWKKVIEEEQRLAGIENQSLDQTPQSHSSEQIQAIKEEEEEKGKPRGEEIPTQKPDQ

Progesterone receptor = target: T3, Progesterone receptor (Homo sapiens, UniProt P06401); format: functional
T3 sequence (P06401 whole entry): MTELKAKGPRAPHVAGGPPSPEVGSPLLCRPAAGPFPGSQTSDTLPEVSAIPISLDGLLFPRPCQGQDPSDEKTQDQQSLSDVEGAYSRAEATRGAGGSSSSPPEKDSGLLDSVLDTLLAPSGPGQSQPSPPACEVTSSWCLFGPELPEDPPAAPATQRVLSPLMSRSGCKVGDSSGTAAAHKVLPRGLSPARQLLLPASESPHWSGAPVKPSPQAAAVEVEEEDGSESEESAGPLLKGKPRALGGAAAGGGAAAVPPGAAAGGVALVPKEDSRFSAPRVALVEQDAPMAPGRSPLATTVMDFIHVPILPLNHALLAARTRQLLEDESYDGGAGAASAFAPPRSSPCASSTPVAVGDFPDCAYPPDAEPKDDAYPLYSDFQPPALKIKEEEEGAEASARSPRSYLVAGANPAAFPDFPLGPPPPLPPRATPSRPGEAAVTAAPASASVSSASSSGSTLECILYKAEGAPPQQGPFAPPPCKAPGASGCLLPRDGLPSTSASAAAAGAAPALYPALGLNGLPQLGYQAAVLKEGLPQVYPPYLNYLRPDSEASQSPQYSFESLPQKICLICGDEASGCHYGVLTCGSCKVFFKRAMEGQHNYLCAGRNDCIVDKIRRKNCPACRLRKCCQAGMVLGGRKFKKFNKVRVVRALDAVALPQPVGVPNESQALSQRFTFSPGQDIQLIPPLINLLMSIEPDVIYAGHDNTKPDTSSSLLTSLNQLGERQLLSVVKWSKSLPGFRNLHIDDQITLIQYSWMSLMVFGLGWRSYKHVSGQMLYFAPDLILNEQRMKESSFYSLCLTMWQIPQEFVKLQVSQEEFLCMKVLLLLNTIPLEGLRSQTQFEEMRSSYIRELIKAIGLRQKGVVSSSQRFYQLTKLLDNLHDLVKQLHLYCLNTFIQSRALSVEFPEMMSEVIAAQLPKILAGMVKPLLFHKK

Vasopressin V1a receptor = Vasopressin V1a receptor (Homo sapiens, UniProt P37288)
Sequence of Vasopressin V1a receptor (P37288 whole entry): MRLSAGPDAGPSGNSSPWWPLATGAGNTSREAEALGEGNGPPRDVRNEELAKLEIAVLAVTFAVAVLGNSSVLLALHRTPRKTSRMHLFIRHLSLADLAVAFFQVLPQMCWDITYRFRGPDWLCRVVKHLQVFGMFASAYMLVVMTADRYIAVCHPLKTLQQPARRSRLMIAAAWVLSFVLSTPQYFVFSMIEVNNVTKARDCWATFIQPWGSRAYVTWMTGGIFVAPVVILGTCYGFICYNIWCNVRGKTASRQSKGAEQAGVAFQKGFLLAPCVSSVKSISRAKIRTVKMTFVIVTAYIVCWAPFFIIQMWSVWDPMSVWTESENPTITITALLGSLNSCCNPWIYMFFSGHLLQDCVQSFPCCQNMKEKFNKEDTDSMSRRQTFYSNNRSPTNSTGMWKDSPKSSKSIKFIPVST

[4] = target: T4, Type-1 angiotensin II receptor (Homo sapiens, UniProt P30556)
T4 sequence (P30556 whole entry): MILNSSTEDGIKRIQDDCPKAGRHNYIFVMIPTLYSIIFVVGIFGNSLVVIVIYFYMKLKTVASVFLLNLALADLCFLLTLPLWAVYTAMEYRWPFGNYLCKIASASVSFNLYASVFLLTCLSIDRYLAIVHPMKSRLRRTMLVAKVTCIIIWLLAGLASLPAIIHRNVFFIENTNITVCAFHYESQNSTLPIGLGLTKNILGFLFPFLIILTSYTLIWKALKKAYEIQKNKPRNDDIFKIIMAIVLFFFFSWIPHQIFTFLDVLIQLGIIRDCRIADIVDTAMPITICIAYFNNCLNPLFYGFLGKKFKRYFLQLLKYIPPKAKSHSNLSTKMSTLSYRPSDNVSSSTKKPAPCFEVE

[5] = target: 5-hydroxytryptamine receptor 2A (Homo sapiens, UniProt P28223); format: functional, cell-based
Sequence of 5-hydroxytryptamine receptor 2A (P28223 whole entry): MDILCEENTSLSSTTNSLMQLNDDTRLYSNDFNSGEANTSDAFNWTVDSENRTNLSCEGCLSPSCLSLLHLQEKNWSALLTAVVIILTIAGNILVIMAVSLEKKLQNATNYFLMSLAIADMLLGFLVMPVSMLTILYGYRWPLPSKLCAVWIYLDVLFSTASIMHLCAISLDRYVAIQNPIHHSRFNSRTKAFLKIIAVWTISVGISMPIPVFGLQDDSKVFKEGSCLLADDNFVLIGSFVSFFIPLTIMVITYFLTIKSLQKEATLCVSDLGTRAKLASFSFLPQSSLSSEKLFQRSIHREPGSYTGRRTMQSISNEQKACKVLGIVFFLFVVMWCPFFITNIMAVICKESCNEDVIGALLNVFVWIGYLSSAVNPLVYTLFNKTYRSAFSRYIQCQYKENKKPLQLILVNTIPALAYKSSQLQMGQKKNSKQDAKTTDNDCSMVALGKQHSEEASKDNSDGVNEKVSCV

Adenosine receptor A3 = target: T5, Adenosine receptor A3 (Homo sapiens, UniProt P0DMS8)
T5 sequence (P0DMS8 whole entry): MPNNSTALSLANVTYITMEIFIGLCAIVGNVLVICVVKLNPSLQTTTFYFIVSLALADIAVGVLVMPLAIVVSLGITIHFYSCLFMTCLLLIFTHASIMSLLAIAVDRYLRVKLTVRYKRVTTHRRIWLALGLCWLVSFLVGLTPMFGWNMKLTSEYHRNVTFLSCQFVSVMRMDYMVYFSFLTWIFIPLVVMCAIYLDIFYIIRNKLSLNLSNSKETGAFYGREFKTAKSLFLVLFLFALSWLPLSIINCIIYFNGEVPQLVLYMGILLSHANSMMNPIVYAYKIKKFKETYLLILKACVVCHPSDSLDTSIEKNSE

[6] = target: Neuronal acetylcholine receptor subunit alpha-4 (Homo sapiens, UniProt P43681)
Sequence of Neuronal acetylcholine receptor subunit alpha-4 (P43681 whole entry): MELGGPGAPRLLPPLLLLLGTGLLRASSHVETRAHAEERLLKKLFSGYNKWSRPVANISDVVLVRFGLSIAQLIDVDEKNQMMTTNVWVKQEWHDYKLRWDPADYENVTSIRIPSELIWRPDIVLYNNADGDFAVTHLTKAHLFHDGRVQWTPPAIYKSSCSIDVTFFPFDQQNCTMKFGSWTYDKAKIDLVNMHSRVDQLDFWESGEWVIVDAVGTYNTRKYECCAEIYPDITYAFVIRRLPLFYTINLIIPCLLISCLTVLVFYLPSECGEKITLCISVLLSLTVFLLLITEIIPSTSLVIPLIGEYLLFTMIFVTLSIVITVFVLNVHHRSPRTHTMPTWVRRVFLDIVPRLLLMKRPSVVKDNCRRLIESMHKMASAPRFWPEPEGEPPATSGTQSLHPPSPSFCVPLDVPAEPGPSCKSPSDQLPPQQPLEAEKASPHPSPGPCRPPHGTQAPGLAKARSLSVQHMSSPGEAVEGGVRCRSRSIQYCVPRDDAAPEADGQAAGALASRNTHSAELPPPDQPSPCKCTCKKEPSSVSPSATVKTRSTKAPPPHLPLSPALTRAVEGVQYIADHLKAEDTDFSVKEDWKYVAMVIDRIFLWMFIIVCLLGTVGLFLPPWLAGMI
Further: assay procedure not described here.

Sequence of D(1A) dopamine receptor (P21728 whole entry): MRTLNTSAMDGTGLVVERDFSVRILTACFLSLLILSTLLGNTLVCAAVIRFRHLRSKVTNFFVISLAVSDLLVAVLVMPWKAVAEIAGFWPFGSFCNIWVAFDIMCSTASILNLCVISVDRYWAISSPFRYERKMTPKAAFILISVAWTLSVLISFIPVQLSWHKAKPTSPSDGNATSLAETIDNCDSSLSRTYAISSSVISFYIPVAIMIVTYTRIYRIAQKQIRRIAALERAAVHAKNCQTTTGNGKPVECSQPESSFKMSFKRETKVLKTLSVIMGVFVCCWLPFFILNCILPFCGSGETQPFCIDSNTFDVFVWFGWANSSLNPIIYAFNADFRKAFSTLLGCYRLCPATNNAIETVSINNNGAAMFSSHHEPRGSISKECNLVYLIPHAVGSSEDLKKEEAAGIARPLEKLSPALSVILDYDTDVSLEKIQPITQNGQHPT

AC50 (D(1A) dopamine receptor): > 30 µM
AC50 [1]: > 30 µM
AC50 [2]: > 30 µM
AC50 (B2 bradykinin receptor): > 30 µM
AC50 [3]: > 30 µM
AC50 (Progesterone receptor): 0.2 µM
AC50 (Vasopressin V1a receptor): > 30 µM
AC50 [4]: > 30 µM
AC50 [5]: > 30 µM
AC50 (Adenosine receptor A3): > 30 µM
AC50 [6]: > 30 µM
SMILES: C[C@]12CCC(=O)C=C1C=C[C@@H]1[C@@H]2CC[C@@]2(C)[C@H]1CC[C@@]21CCC(=O)O1 [CANRENONE]
